SMILES strings stand for the structures. The source made the active and inactive calls. The calls are words filed in the database; no cut-off is given here.

The subject of series [1] is Staphylococcus aureus. The experiment in a line: Antibacterial activity against methicillin-resistant Staphylococcus aureus NCTC 10442 assessed as inhibition of bacterial growth incubated for 24 hrs in presence of 140 mM Na+ by broth dilution method. It is filed as functional. (In general: Dilution methods test growth across graded concentrations, often in twofold steps.)

Series [2] concerns Escherichia coli. The series is described as follows: Antibacterial activity against Escherichia coli ATCC 25922 assessed as inhibition of bacterial growth incubated for 24 hrs in presence of 140 mM Na+ by broth dilution method. It is filed as functional.
A further series concerns Klebsiella pneumoniae. The experiment in a line: Antibacterial activity against Klebsiella pneumoniae ATCC 10031 assessed as inhibition of bacterial growth incubated for 24 hrs in presence of 140 mM Na+ by broth dilution method. It is filed as functional.
For series [3], the system named is Escherichia coli. The series is described as follows: Antibacterial activity against Escherichia coli ATCC 25922 assessed as inhibition of bacterial growth incubated for 24 hrs in presence of 20 uM Fe3+ by broth dilution method. It is filed as functional.
Series [4] is described as follows: Cytotoxicity against human HepG2 cells assessed as viable cells at 3.125 microg/ml incubated for 24 hrs by CCK-8 assay. Format: toxicity, cell-based. Conditions: at 3.125 µg/mL, read-out: Activity.
Another series concerns Cell membrane. The experiment in a line: Induction of cytoplasmic membrane permeabilization in methicilin-resistant Staphylococcus aureus […] assessed as disruption of cell membrane integrity by measuring increase in fluorescence intensity at 1 to 8 times of MIC concentration measured upto 60 mins by SYTOX green dye based fluorescence analysis. Conditions: NCTC 10442. It is filed as cell membranes.

The test system of series [5] is Staphylococcus aureus. The experiment in a line: Bactericidal activity against methicillin-resistant Staphylococcus aureus NCTC 10442 assessed as down-regulation of biological processes related gene expression by measuring UMP biosynthetic process (GO:0044,205) at 4 times of MIC concentration measured after 90 mins incubation by RNA sequencing (RNA-seq) study. It is filed as functional, organism-based.

The test system of series [6] is Escherichia coli. The experiment in a line: Bactericidal activity against Escherichia coli ATCC 25922 assessed as change in amino acid metabolism gene expression at 4 times of MIC concentration measured after 90 mins incubation by RNA sequencing (RNA-seq) study. Format: functional, organism-based.
The subject of series [7] is Escherichia coli. The experiment in a line: Bactericidal activity against Escherichia coli ATCC 25922 assessed as change in cell death associated gene expression by measuring down-regulation of UDP-glucose 4-epimerase (galE, D1792_RS06370) gene expression at 4 times of MIC concentration measured after 90 mins incubation by RNA sequencing (RNA-seq) study. Format: functional, organism-based.

In general, MIC refers to the lowest concentration that inhibits growth of the organism. Regarding `C=C(C)[C@@H]1CCC(C)=C[C@H]1c1c(OCCCNC(=N)N)cc(CCCCC)cc1OCCCNC(=N)N`, the MIC in the series with Staphylococcus aureus [1] is 0.39 µg/mL; in the series with Escherichia coli [2], 3.12 µg/mL; with Klebsiella pneumoniae it was 3.12 µg/mL; in the series with Escherichia coli [3], 1.56 µg/mL. In series [4], the viability at 24 h, 3.125 microg/ml was 111%. Moreover, the outcome with Cell membrane, in the series with Staphylococcus aureus [5], in the series with Escherichia coli [6] and in the series with Escherichia coli [7] was Active.
